Reference: patent US5008294A, “Methods of treating tumors with compositions of catecholic butanes” (priority 1987, dated 1991)
Read-outs that look alike come from different tables or passages of the source.

Assays:
[1] = test system: human breast adenocarcinoma, MX-1; test: Antineoplastic activity by topical application in athymic mice implanted intradermally with human breast adenocarcinoma MX-1 (Examples 7 and 8); format: in vivo; settings: 4.4 wt/wt% composition (Table 8)
Protocol: A composition containing 17.6% NDGA and 1% BHT in Pego 400 was tested for antineoplastic activity in athymic mice implanted with human breast adenocarcinoma, MX-1. Each animal was innoculated intradermally on the dorsum near the nape of the neck with 0.5 ml of a MX-1 homogenate. The animals were treated by topical application with the NDGA composition after day 23. Compositions containing 4.4 wt/wt% of meso and DL NDGA were tested for efficacy against the MX-1 tumor as in Example 7.

[2] = test system: human lung tumor cell line LX-T; test: Antitumor effect against human lung tumor cell line LX-T (clonogenic assay / DNA flow cytometry with DAPI, Example 5); format: cell-based
Protocol: The antitumor effect of NDGA against the human lung tumor cell line LX-T was determined utilizing a clonogenic assay.
Serial dilutions of the test stock solutions were made in 15 ml of Ca^2+ --and Mg^2+ --free Hank's balanced salt solution (HBSS).
The LX-T cells were incubated in the presence of various amounts of NDGA, and the antitumor effect was determined by measuring the DNA […] of the LX-T nuclei using DNA flow cytometric analysis with a DNA-specific fluorochrome, 4', 6-diamidino-2-phenylindole (DAPI).

[3] = Absorption of harmful sunlight (ultraviolet) radiation (Example 10); format: physicochemical
Protocol: The ability of NDGA to absorb harmful sunlight radiation was tested.

[4] = test system: MC-1 equine sarcoid-derived cell line; test: Inhibition of in vitro colony growth of MC-1 equine sarcoid-derived cell line (Example 4); format: cell-based; settings: for inhibition at 18 µM / inhibition at 27 µM / inhibition at 56 µM: Equus caballus, 336 h; for inhibition at 18 µM: 18 MicroMolar; for inhibition at 27 µM: 27 MicroMolar; for inhibition at 56 µM: 56 MicroMolar
Protocol: (§1) Single cell suspensions of tumor cells harvested from culture flasks were exposed to the different compositions of NDGA for one hour at 37° C in liquid medium, and the cells were then washed twice, suspended in agarose medium and plated and the number of colony forming cells were determined. Results are expressed as percent inhibition of survival of clonogenic cells in treated cultures relative to nontreated control cultures. Significant anticancer activity was defined as>70% inhibition of the survival of colony-forming (tumor) cells.
Compositions of NDGA were tested for their ability to inhibit in vitro growth of the MC-1 equine sarcoid-derived cell line, in experiments similar to those of Example 3.

[5] = test system: hepatic and colon carcinoma; test: Treatment of hepatic and colon carcinoma
Description: The catecholic butanes, when applied parenterally or by injection, are excreted primarily through the liver and gut, and therefore exert preferential cytotoxicity to tumors located in those organs.

[6] = test system: human breast adenocarcinoma (MX-1); test: Effect against human breast adenocarcinoma (MX-1)
TPA tumor promotion = test: Antipromoting activity in mice: DMBA+NDGA+TPA (Example 9); format: in vivo, SENCAR mice; settings: NDGA 9 mg topical 30 minutes prior to each TPA application
Protocol: (§2) Mice were exposed to dimethyl benzanthracene (DMBA), a classical tumor inducer, and to phorbol ester (TPA), a classical tumor promoter, after having been treated with NDGA.
(§3) Twenty mice were included in each of the following groups:
(§4) 1. Positive control group: DMBA+TPA. Female SENCAR mice 6-8 weeks old received a single topical application of […] of DMBA in 0.2 ml of acetone as the initiating agent. After one week, animals received twice weekly applications of tumor promoter TPA in 0.1 ml of acetone. Tumor formation was recorded weekly.
2. Antipromoting activity: DMBA+NDGA+TPA. 30 minutes prior to each application of TPA animals received topical application of NDGA (9 mg.) in 0.2 ml of acetone.

[7] = test system: MX-1 (human breast adenocarcinoma) cells; test: In vivo antitumor effect on MX-1 cells implanted subcutaneously in nude mice, intratumoral injection (Example 6); settings: 0.1 ml injected directly into the tumor
Protocol: The in vivo antitumor effect of NDGA at various survival levels was determined using MX-1 (human breast adenocarcinoma) cells implanted subcutaneously in the flank of nude mice.
Tumors which reached the 25-100 mm^2 range were used for the experiment. 0.1 ml of the test compound in solution was injected directly into the tumor. The tumors were measured periodically to determine their weight until 60 days after the initial treatment or all mice had died.

melanoma (B-16) = test: Effect against melanoma (B-16); parameters: species or system mouse
[8] = Stability against oxidation; format: physicochemical; settings: for example, by air; more stable at lower pH
Description: The pH of the formulation is important in assuring stability of the catecholic butane as well as assuring that the formulation is physiologically acceptable to the patient. […] Such oxidation can result in discoloration of the formulation rendering it unacceptable for pharmaceutical use. […] Therefore, it is preferred that if the formulation is to be exposed to oxidizing conditions the pH be maintained below about 7.5 and preferably below about 6 in order to provide maximum stability for the catechol against oxidation. However, if oxidizing conditions can be avoided, for example, by storage of the formulation under an inert atmosphere such as nitrogen, a higher pH can be used. The pH of the formulation may be maintained through the use of toxicologically-acceptable buffers. Such buffers are well known in the pharmaceutical formulation art, and include hydrochloric acid buffer, acid phthalate buffer, phosphate buffer and citric acid/sodium citrate buffer.

[9] = test system: lung squamous cell carcinoma (LX-1); test: Effect against lung squamous cell carcinoma (LX-1); parameters: species or system human
[10] = test system: CMT-12 cultured canine breast adenocarcinoma tumor cells; test: Clonogenic assay, antiproliferative effect on CMT-12 canine breast adenocarcinoma cells (Example 3); format: cell-based; settings: for No. Tumor Colonies Surviving: one hour at 37° C
Protocol: The antiproliferative effect of NDGA on CMT-12 cultured canine breast adenocarcinoma tumor cells was evaluated in clonogenic (cancer cell) assays.
as §1

tumor cells = test: Enhancement of X-ray radiation effectiveness by topical application; settings: applied topically; without radiation toxicity to surrounding uninvolved skin
Description: Consequently, the catecholic butanes may be useful in the treatment of cutaneous afflictions such as Kaposi's sarcoma.

tumor induction by DMBA = test: Anticarcinogenic activity in mice: NDGA+DMBA+TPA (Example 9); format: in vivo, SENCAR mice; settings: NDGA 3 mg topical, five consecutive days before DMBA and TPA
Protocol: as §2, §3, §4
3. Anticarcinogenic activity: NDGA+DMBA+TPA. For five consecutive days animals received topical applications of NDGA (3 mg.) in 0.2 ml of acetone. 24 hours after the last treatment with NDGA, animals received DMBA and TPA exactly as in the positive control group.

[11] = test system: several types of cancer cells; settings: Leiter et al.; cited from earlier work
human cancer patients = settings: ingested; Smart et al. 1970; cited from earlier work
[12] = Day 14, mean of 3 experiments, read-out: % Inhibition (Mean)
[13] = Day 14, read-out: Percentage Inhibition of Colony Growth, Experiment #1
[14] = Day 14, read-out: Percentage Inhibition of Colony Growth, Experiment #2
[15] = Day 14, read-out: Percentage Inhibition of Colony Growth, Experiment #3

## C[C@H](Cc1ccc(O)c(O)c1)[C@H](C)Cc1ccc(O)c(O)c1 (relative stereo) [dl-NDGA]
[1]
  Tumor Free 60 Days: 4/5
  Tumor Recurrence: 0

## COc1cccc2c1C(=O)c1c(O)c3c(c(O)c1C2=O)C[C@@](O)(C(=O)CO)C[C@@H]3O[C@H]1C[C@H](N)[C@H](O)[C@H](C)O1 [Adriamycin, reference compound]
[2]; read-out: ED(50)
  EC50: 25.6 µM

## O=c1[nH]cc(F)c(=O)[nH]1 [Composition 5-FU, reference compound]
[2]; read-out: ED(50)
  EC50: 102 µM

## CO[C@@]12[C@H](COC(N)=O)C3=C(C(=O)C(C)=C(N)C3=O)N1C[C@@H]1N[C@@H]12 [Mutamycin, reference compound]
[2]; read-out: ED(50)
  EC50: 18.4 µM

## C[C@H](Cc1ccc(O)c(O)c1)[C@@H](C)Cc1ccc(O)c(O)c1 [NDGA, meso-1,4-bis (3,4-dihydroxyphenyl)-2,3-dimethylbutane]
[3]; result in words
  absorption of sunlight: strongly absorb sunlight at wavelengths known to produce sunburn
[3]; solution in methanol
  strong absorption in the ultraviolet region: 2816 Angstroms
[4]; [12]
  inhibition at 18 µM: 32.4%
  inhibition at 27 µM: 47%
  inhibition at 56 µM: 45.3%
[4]; [13]
  inhibition at 18 µM: 20.9%
  inhibition at 27 µM: 32.8%
  inhibition at 56 µM: 33%
[4]; [14]
  inhibition at 18 µM: 36.7%
  inhibition at 27 µM: 58.9%
  inhibition at 56 µM: 62.2%
[4]; [15]
  inhibition at 18 µM: 39.5%
  inhibition at 27 µM: 49.3%
  inhibition at 56 µM: 40.7%
[4]; especially noticable at 27 and 56 microMolar NDGA
  inhibiting colony growth over the duration of the assay: uniformly successful in inhibiting colony growth
[5]
  effectiveness in treating hepatic and colon carcinoma: effective in treating hepatic and colon carcinoma
[6]
  effectiveness against human breast adenocarcinoma (MX-1): particularly effective
[1]
  Tumor Free 60 Days: 4/5
  Tumor Recurrence: 0
TPA tumor promotion
  prevention of TPA tumor promotion: nearly completely prevent TPA tumor promotion
[7]
  ED(50): 13.62 Micromoles
  ED(75): 25.66 Micromoles
  ED(90): 48.33 Micromoles
  ED(95): 74.34 Micromoles
Melanoma (B-16)
  effectiveness against melanoma (B-16): particularly effective
[8]
  susceptibility to oxidation: susceptible to oxidation
[9]
  effectiveness against lung squamous cell carcinoma (LX-1): particularly effective
[10]; 5 MicroMolar
  No. Tumor Colonies Surviving: 229.7 ± 10.9
[10]; 10 MicroMolar
  No. Tumor Colonies Surviving: 173.3 ± 23.3
[10]; 18 microMolar
  No. Tumor Colonies Surviving: 190 ± 16.3
[10]; 27 microMolar
  No. Tumor Colonies Surviving: 40 ± 16.3
[10]; 56 microMolar
  No. Tumor Colonies Surviving: 3.3 ± 4.7
[10]; Canis lupus familiaris, 10 MicroMolar, survival of clonogenic cells relative to nontreated control
  inhibition at 10 µM: 82.5%
[10]; Canis lupus familiaris, 18 microMolar, survival of clonogenic cells relative to nontreated control
  inhibition at 18 µM: 90.9%
[10]; Canis lupus familiaris, 27 microMolar, survival of clonogenic cells relative to nontreated control
  inhibition at 27 µM: 98.1%
[10]; Canis lupus familiaris, 56 microMolar, survival of clonogenic cells relative to nontreated control
  inhibition at 56 µM: 99.8%
[2]; 50% cell growth inhibition, ± SD, read-out: Calculated ED(50)
  EC50: 17.6 ± 4.07 µM
[2]; 75% cell growth inhibition, ± SD, read-out: Calculated ED(75)
  IC75: 26.6 ± 12.1 µM
[2]; 90% cell growth inhibition, ± SD, read-out: Calculated ED(90)
  IC90: 41.1 ± 28.1 µM
[2]; 95% cell growth inhibition, ± SD, read-out: Calculated ED(95)
  IC95: 55.9 ± 46.8 µM
[2]; comparison with known anticancer drugs (Table 5B), read-out: ED(50) (the source's name)
  EC50: 17.6 µM
Tumor cells
  enhancement of X-ray radiation effectiveness: enhance the X-ray radiation effectiveness of the tumor cells without radiation toxicity to surrounding uninvolved skin
Tumor induction by DMBA
  reduction of the potential of tumor induction by DMBA: significantly reduce the potential of tumor induction by DMBA
[11]
  screening result: negative results
Human cancer patients
  clinical outcome: some positive results
